# Data: patent EP0496162A2, “Peptide inhibitors of RAS-GAP interaction” (MERCK & CO. INC., priority 1990, dated 1992)
# Non-standard residues stand in square brackets, D forms with d. Residues, ends and D or L forms follow the SMILES beside them. No end group written: not given here.
# Columns and labels:
# [1] = assay type: physicochemical
# Procedure: (§1) Ras peptides were dissolved in either 100% dimethyl formamide (DMF, American Burdick and Jackson) or 100% dimethyl sulfoxide (DMSO, Fluka UV-spectroscopy grade) at a calculated peptide concentration of 1-4 mM. Following 1 minute in a Sonicor SC-200 bath sonicator at room temperature, the peptide solutions were vortexed, and then centrifuged for 5 minutes at room temperature in an Eppendorf microfuge to remove any undissolved material. 20 µL of the cleared peptide solutions were then added to 80 µL of Buffer D in a dilution series covering a range of peptide concentrations from 0.02 µM up to the maximum solubility limit for each peptide. In each dilution, the solvent concentration was maintained at 20%. These peptides solutions were then centrifuged for 5 minutes at room temperature at 10,000 x g, and the cleared supernatants were divided into 2 parts. One part of each cleared peptide dilution was used in a GAP competition assay: 40 µL was added to a 5 µL solution containing 0.1 mg/mL BSA plus 240 fmol Ha-ras p21-[γ-³²P]GTP. Reactions were initiated upon addition of 5 µL of diluted GAP (10 fmol), and analyzed as described above.
# The other portion of the cleared peptide solution was measured spectrophotometrically to determine solubility and concentration of the peptides. Extinction coefficients were determined by measuring the absorbance at 277 nm of 2 peptides whose exact concentrations were quantitated by amino acid analysis. The extinction coefficients for peptide Ras 17-37 dissolved in buffer D/20% DMF or peptide Ras 91-103 (SEQ ID NO:14)dissolved in water/20% DMSO, were 2580 cm⁻¹M⁻¹ and 2230 cm⁻¹ M⁻¹, respectively. These values were used to determine the exact concentration for each peptide used at each point in the competition assay. In addition, peptide solubility was confirmed by comparing the light scattering at 600 nm for each peptide solution measured before and after centrifugation. Only concentrations reflecting 100% solubility were used in the dose response curves, and the maximum concentration used for each peptide competitor indicates the limit of solubility for that peptide.
# Ras-GAP interaction = biological target: T1, Ras-GAP interaction (Bos taurus, UniProt P09851); experiment: Ras-GAP interaction inhibition assay (GAP-stimulated Ras GTPase, charcoal adsorption); assay type: biochemical, bovine; settings: concentration of peptide required to reduce GAP stimulated Ras-GTP hydrolysis by 50%; 10 fmol GAP, 240 fmol Ha ras p21-GTP, 4 minutes at 24°C
# T1 construct: made in house; host or cells: GAP: E. coli JM109 (plasmid pYO); Ha-Ras: E. coli RRllaci^q (plasmid pRas[Gly12 Ala59])
# T1 sequence (P09851 1-1044): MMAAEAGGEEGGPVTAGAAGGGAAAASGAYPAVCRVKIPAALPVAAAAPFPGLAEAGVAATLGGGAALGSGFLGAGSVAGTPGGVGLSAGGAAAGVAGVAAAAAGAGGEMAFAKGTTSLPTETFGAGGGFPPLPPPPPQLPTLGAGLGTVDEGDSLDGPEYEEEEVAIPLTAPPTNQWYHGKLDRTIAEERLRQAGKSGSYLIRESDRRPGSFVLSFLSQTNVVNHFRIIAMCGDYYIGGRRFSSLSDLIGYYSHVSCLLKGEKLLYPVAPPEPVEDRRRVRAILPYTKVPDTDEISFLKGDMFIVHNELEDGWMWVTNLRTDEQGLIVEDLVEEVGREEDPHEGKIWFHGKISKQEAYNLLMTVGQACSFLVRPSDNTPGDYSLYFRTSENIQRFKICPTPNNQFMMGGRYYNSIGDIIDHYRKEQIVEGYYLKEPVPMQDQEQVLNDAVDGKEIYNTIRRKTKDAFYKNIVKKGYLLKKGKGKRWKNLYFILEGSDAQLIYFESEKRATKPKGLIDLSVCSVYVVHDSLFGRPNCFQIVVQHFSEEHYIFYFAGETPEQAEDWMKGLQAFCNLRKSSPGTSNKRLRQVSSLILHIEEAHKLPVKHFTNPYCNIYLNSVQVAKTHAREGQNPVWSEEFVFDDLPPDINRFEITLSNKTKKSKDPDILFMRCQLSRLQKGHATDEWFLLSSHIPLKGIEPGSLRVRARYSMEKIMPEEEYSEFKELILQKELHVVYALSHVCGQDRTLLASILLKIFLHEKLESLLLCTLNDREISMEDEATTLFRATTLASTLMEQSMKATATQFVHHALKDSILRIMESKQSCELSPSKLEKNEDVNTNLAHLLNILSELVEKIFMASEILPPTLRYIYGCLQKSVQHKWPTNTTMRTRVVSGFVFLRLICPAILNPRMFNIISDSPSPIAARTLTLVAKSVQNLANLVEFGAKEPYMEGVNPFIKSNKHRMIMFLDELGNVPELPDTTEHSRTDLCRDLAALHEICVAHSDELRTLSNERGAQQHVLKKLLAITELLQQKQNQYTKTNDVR
# Procedure: The activity of the synthetic peptides of the present invention, as inhibitors of the interaction of ras with GAP was determined in an assay which measures GAP dependent, Ras GTPase activity. Bovine GAP was either purified from fresh bovine brains or recombinantly produced in E. coli. It is understood that the methods of the present invention may utilize either the recombinant full length GAP or the bovine brain derived GAP. In addition, GAP from other species, such as human and mouse, may be substituted for bovine GAP since they share about 95% amino acid homology. Truncated recombinant forms of GAP are also suitable for use in the Ras-GAP interaction assay [Marshall, M.S., et al., (1989), EMBO J., 8, pp1105-1110]. However, for the screening of synthetic peptides for their ability to block the Ras-GAP interaction, the recombinant, full length GAP is preferred.
# The Ras protein utilized in the Ras-GAP GTPase assay of the present invention is Harvey ras (Ha-ras). It is understood that other forms of Ras protein are suitable for use in the present invention. Other suitable forms of Ras protein include, but are not limited to, Kirsten Ras, yeast S. cerevisiae RAS, and N-Ras. Furthermore, it is readily apparent to those skilled in the art that any form of Ras protein which is capable of interacting with GAP is suitable for use in the Ras-GAP GTPase assay.
# Ras GTPase activity was measured by the charcoal adsorption procedure. Each 50 µL reaction contained 10 fmol purified GAP, 240 fmol Ha ras p21-[γ ³²P] GTP and 1 mg/mL BSA in buffer D. Varying amounts of the competing peptides were added as indicated. Prewarmed reactions (24°C) were initiated by the addition of GAP, then incubated for 4 minutes at 24°C. The reactions were terminated by the addition of 5 volumes of ice cold 5% activated charcoal (Sigma: HCl washed) in 50 mM NaH₂PO₄. GTPase activity was quantitated by measuring the free ³²P-orthophosphate in the cleared supernatant after centrifugation of the charcoal mix. GAP-stimulated Ras GTPase activity in the absence of competitors was 40-60 fmol Ras-GTP hydrolyzed; the 100% control value. In the absence of GAP, GTP hydrolysis was not detectable during the incubation period of the assay. Inhibitors of this assay block GAP-stimulated Ras GTPase without impairing intrinsic Ras GTPase, assayed in the absence of GAP following incubation at 24°C for one hour.
# as §1
# [2] = biological target: T2, S. cerevisiae adenylyl cyclase (Ras Dependent, strain FlD reconstituted with purified Ras) (Saccharomyces cerevisiae, UniProt P08678); experiment: Yeast adenylyl cyclase assay, reconstitution of FlD membranes with purified Ras protein; assay type: biochemical; settings: part B, FlD membranes with 5 µM purified Ras protein, peptide 10 µM
# T2 construct: Since these membranes contain adenylyl cyclase, but are lacking Ras protein; endogenous in cells; host or cells: membranes of S. cerevisiae strain FlD
# Description: Another Ras-dependent enzymatic assay was used to extend the observed ability of the peptides of the present invention to inhibit Ras function. This system, yeast adenylyl cyclase assay, measures the Ras-dependent conversion of ATP into cyclic AMP (cAMP). […] Furthermore, in S. cerevisiae, regulation of cAMP metabolism appears to be a major function of Ras. This assay system was used to extend the observed Ras inhibitory activity of the peptides of the present invention, to a Ras function which is GAP-unrelated. S. cerevisiae strain FlD lacks functional Ras proteins, however FlD cells have functional adenylyl cyclase in their cell membrane. […] Similarly, a recombinant S. cerevisiae strain MY1186, lacks yeast Ras proteins but expresses mammalian Ras protein which functions with adenylyl cyclase to regulate cAMP metabolisim in the yeast cells. […] In contrast, S. cerevisiae strain JC377-10B contains a mutant form of adenylyl cyclase which constitutively converts ATP into cAMP with or without Ras.
# Ras peptides were tested at the indicated concentrations for inhibition of S. cerevisiae adenylyl cyclase activity. […] Ras-independent activity was assayed with membranes from strain JC377-10B (ras-minus, constitutively active adenylyl cyclase).
# Yeast strain FlD, MY1186 and JC377-10B, were grown in YEHD medium at 30°C. Membrane fractions were prepared from cultures grown to an A₆₆₀ of 0.5 to 1.0 by glusulase digestion [Casperson, G.F. et al., (1983), J. Biol. Chem., 258, pp. 7911-7914], Dounce homogenization of the spheroplasts in buffer containing 50 mM sodium MES [2(N-morpholino) ethanesulfonic acid] […] Adenylyl cyclase assays (100-µL reaction volume) measured the conversion of [α-³²P]ATP to [³²P]cAMP at 30°C, using 50 µg to 100 µg of membrane protein in assays using membranes from yeast strains MY1186 and JC377-10B.. […] Since these membranes contain adenylyl cyclase, but are lacking Ras protein, stimulation of adenylyl cyclase activity may be measured following reconstitution with purified Ras complexed with GTP. […]
# T2 sequence (P08678 whole entry): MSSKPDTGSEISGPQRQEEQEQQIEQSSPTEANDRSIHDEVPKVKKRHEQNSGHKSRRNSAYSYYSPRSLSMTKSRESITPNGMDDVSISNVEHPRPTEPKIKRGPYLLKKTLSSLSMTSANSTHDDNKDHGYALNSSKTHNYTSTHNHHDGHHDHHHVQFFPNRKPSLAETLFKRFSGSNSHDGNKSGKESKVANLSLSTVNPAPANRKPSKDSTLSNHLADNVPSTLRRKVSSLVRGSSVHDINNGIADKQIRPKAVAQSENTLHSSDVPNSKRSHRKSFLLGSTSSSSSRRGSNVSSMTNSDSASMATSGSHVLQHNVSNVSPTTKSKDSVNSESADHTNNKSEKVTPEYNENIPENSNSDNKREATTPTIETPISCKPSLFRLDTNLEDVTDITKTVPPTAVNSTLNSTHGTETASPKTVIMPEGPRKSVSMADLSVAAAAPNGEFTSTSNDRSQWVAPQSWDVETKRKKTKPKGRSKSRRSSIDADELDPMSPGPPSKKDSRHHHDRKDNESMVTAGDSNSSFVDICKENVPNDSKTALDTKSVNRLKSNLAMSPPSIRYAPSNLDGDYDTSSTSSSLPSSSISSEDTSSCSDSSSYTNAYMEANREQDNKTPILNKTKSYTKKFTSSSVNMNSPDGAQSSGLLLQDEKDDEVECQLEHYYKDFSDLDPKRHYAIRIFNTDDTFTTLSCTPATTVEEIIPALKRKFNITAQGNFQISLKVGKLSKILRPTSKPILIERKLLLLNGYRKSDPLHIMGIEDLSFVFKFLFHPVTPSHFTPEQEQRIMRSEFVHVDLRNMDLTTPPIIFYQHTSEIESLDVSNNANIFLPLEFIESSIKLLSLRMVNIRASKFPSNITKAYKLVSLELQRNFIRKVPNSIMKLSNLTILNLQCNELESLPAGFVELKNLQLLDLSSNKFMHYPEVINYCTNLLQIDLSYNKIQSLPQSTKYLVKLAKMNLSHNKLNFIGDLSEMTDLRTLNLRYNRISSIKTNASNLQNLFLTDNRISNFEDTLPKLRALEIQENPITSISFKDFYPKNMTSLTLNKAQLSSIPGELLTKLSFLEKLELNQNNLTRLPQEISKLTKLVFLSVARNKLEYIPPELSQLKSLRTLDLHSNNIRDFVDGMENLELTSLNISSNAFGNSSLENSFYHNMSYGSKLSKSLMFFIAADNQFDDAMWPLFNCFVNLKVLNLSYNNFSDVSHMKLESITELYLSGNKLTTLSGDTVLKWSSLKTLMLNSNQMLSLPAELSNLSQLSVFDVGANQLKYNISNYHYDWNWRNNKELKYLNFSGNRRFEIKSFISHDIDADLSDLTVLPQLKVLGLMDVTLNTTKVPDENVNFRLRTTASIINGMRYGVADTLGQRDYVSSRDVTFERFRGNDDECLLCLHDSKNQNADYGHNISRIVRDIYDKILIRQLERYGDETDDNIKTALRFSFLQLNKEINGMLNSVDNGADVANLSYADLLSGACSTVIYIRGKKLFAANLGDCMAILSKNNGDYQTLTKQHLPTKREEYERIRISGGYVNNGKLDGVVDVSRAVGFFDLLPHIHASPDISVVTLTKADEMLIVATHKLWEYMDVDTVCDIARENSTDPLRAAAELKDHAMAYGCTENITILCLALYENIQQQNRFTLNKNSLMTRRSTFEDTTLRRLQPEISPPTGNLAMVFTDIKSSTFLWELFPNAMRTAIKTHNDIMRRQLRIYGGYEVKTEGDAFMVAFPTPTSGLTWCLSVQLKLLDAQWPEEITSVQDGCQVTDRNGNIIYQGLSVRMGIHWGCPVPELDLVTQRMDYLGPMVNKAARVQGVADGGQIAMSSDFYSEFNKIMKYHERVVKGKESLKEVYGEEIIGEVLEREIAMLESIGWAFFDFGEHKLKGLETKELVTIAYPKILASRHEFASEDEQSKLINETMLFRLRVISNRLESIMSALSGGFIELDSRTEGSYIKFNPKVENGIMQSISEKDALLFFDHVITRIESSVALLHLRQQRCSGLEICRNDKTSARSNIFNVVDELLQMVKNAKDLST
molecule,measurement,setting,value
EYDPTIEDSYRKQ [Ras 31-43],Maximum Solubility,[1],446 µM
same,IC50*,Ras-GAP interaction,no inhibition
LTIQIQNHFVDE [Ras 19-31(1)],Maximum Solubility,[1],>1000 µM
same,IC50,Ras-GAP interaction,36 µM
CC[C@H](C)[C@H](NC(=O)[C@H](CC(C)C)NC(=O)[C@H](CCC(N)=O)NC(=O)[C@@H](NC(=O)[C@@H](NC(=O)[C@H](CC(C)C)NC(=O)[C@H](C)NC(=O)[C@@H](N)CO)[C@@H](C)O)[C@@H](C)CC)C(=O)N[C@@H](CCC(N)=O)C(=O)N[C@@H](CC(N)=O)C(=O)O [Ras 17-26],Maximum Solubility,[1],600 µM
same,IC50*,Ras-GAP interaction,no inhibition
SALTIQLIQNHFV [Ras 17-29],Maximum Solubility,[1],20 µM
same,IC50*,Ras-GAP interaction,no inhibition
MRTRVVSGFVFLRLIGPAILNPR [GAP 888-910(Gly903)],Maximum Solubility,[1],800 µM
"GQEEYSAMRDQYMRTGE [Ras 60-76, reference compound]",%Inhibition of Adenylyl Cyclase Activity Ras Dependent,[2],6 ± 1%
LTIQLIQNHFVDE [Ras 19-31],Maximum Solubility,[1],>1000 µM
same,IC50,Ras-GAP interaction,48 µM
LTIQLIQNHFVDEY [Ras 19-32],Maximum Solubility,[1],48 µM
same,IC50,Ras-GAP interaction,0.4 µM
LTIQLIQNHFVDEYD [Ras 19-33],Maximum Solubility,[1],23 µM
same,IC50,Ras-GAP interaction,1.4 µM
TIQLIQNHFVDEY [Ras 20-32],Maximum Solubility,[1],110 µM
same,IC50,Ras-GAP interaction,18 µM
EELTIQLIQNHFVDEYD-NH2 [Ras 19-33(3)],Maximum Solubility,[1],225 µM
same,IC50,Ras-GAP interaction,50 µM
CC[C@H](C)[C@H](NC(=O)[C@H](CC(C)C)NC(=O)[C@H](CCC(N)=O)NC(=O)[C@@H](NC(=O)[C@@H](NC(=O)[C@@H](N)CC(C)C)[C@@H](C)O)[C@@H](C)CC)C(=O)N[C@@H](CCC(N)=O)C(=O)N[C@H](CC(N)=O)C(=O)N[C@@H](Cc1c[nH]cn1)C(=O)N[C@@H](Cc1ccccc1)C(=O)N[C@H](C(=O)N[C@@H](CC(=O)O)C(=O)N[C@@H](CCC(=O)O)C(=O)N[C@@H](Cc1ccc(O)cc1)C(=O)O)C(C)C [Ras 19-32(D-Asn)] (H-LTIQLIQ[dN]HFVDEY-OH),Maximum Solubility,[1],12 µM
same,IC50,Ras-GAP interaction,0.2 µM
NHFVDEY [Ras 26-32],Maximum Solubility,[1],800 µM
same,IC50,Ras-GAP interaction,350 µM
CC[C@H](C)[C@H](NC(=O)[C@H](CC(C)C)NC(=O)[C@H](CCC(N)=O)NC(=O)[C@@H](NC(=O)[C@@H](NC(=O)[C@H](CC(C)C)NC(=O)[C@H](C)NC(=O)[C@@H](N)CO)[C@@H](C)O)[C@@H](C)CC)C(=O)N[C@@H](CCC(N)=O)C(=O)N[C@@H](CC(N)=O)C(=O)N[C@@H](Cc1c[nH]cn1)C(=O)N[C@@H](Cc1ccccc1)C(=O)N[C@H](C(=O)N[C@@H](CC(=O)O)C(=O)N[C@@H](CCC(=O)O)C(=O)N[C@@H](Cc1ccc(O)cc1)C(=O)N[C@@H](CC(=O)O)C(=O)N1CCC[C@H]1C(=O)N[C@H](C(=O)N[C@H](C(=O)N[C@@H](CCC(=O)O)C(=O)N[C@@H](CC(=O)O)C(=O)N[C@@H](CO)C(=O)N[C@@H](Cc1ccc(O)cc1)C(=O)N[C@@H](CCCNC(=N)N)C(=O)N[C@@H](CCCCN)C(=O)N[C@@H](CCC(N)=O)C(=O)N[C@H](C(=O)O)C(C)C)[C@@H](C)CC)[C@@H](C)O)C(C)C [Ras 17-44],Maximum Solubility,[1],200 µM
same,IC50,Ras-GAP interaction,2.4 µM
IQLIQNHFVDEY [Ras 21-32],Maximum Solubility,[1],120 µM
same,IC50,Ras-GAP interaction,70 µM
N[C@@H](CC(=O)O)C(=O)N[C@@H](CCC(=O)O)C(=O)N[C@@H](Cc1ccc(O)cc1)C(=O)O [Ras 30-32] (H-Asp-Glu-Tyr-OH),Maximum Solubility,[1],800 µM
same,IC50*,Ras-GAP interaction,no inhibition
